Measured values taken from patent US20080167385A1 (priority 2004, published 2008).
pKd: −log10 of the molar value. “Also recorded” adds a separate entry of the source.

Tests used:
[1] = target: T1, CDK4/cyclin D1 (Homo sapiens, UniProt P11802+P24385); test: CDK4/cyclin D1 kinase assay (in vitro pRb phosphorylation); assay type: biochemical
T1 construct: His6 (N); made in house; host or cells: CDK4: Sf9 insect cells (baculovirus); GST-pRb: E. coli BL21(DE3)
Procedure: For the 96-well format in vitro kinase assay GST-pRb was used immobilized on glutathione-Sepharose beads.
CDK4/cyclin D1 kinase assay: The reaction mixture consisted of 1 μM of CDK4 and cyclin D1, 5 μg GST-pRb, 100 mM ATP and 0.2 μCi ^32P-ATP. The kinase reaction was carried out for 10 min at 30° C., the reaction was stopped with the addition of sample buffer and after heating the sample was resolved on 10% SDS-PAGE. The aouthoradiography images were scanned and quantified using QuickScan software. The IC50 values were determined using GraFit software.

[2] = target: T1, CDK4/cyclin D1; conditions: background; cited from earlier work
[3] = target: T2, PCNA (Homo sapiens, UniProt P12004); conditions: cited from earlier work
T2 construct: made in house; host or cells: Escherichia coli BL21(DE3), pT7-PCNA
T2 sequence (P12004 whole entry): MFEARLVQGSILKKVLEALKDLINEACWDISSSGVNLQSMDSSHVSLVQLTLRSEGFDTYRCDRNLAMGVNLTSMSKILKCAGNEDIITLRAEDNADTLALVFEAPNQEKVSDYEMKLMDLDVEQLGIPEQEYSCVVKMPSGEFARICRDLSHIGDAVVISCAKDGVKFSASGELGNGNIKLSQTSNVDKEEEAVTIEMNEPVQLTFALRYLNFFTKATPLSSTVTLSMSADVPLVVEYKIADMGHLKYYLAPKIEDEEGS

[4] = tested on: PCNA-dependent DNA replication; conditions: cited from earlier work

T1 sequence (P11802 whole entry): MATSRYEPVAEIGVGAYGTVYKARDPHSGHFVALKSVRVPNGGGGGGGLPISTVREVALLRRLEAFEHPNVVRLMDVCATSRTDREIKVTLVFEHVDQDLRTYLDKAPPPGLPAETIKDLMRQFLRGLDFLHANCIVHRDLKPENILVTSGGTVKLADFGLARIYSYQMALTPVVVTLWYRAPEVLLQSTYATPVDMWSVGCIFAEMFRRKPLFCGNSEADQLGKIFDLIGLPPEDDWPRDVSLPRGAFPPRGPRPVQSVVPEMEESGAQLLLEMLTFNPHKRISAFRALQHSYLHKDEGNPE
T1 sequence (P24385 whole entry): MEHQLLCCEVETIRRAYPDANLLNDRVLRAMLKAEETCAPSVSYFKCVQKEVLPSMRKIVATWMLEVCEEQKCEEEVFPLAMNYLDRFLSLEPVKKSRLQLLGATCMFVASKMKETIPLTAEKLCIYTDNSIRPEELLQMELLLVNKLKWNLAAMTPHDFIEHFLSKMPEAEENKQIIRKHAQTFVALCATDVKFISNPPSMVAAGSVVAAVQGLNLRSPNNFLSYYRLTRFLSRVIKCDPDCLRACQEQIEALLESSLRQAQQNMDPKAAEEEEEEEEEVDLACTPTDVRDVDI

## SAVLQKKITDYFHPKK [CM peptide, hybrid containing 12 residues from the C-terminus of Pogo, flanked by 4 residues from DNA ligase I]
[1]
  CDK/cyclin inhibitory activity: devoid of CDK/cyclin inhibitory activity; also recorded: does not inhibit CDK function
[2]
  inhibition of CDK function: unable to inhibit CDK function
[3]
  affinity for PCNA (in words): nanomolar affinity; also recorded: affinity very similar to that of the p21(141-160) peptide
[3]; isothermal calorimetry
  enthalpy of binding to PCNA: -9.52 kcal/mol
  entropic contribution to PCNA binding: 0.61 cal mol^−1 ° C.^−1
[3]; read-out: Kd of binding to PCNA
  pKd: 7.00
[4]
  inhibition of DNA replication in vitro (in words): potency very similar to that of p21(141-160); also recorded: efficient inhibitor

## p21D149A: site point mutant p21(141-160)D149A (KRRQTSMTAFYHSKRRLIFS; UniProt P38936 141-160, looked up, variant D149A) [reference compound]
[3]; isothermal calorimetry
  Ka of binding to PCNA: 7.8×10^5
